For the assay, the target named is Kir1.1 (ROMK1) (Homo sapiens (Human), UniProt P48048). As to the kind of experiment: ROMK electrophysiology assay (IonWorks Quattro whole cell voltage clamp). Format: cell-based.
Where [1] appears, read: Chinese hamster ovary cells stably expressing Kir1.1, block during voltage step to 0 mV, 6 min compound incubation, read-out: ROMK Electrophysiology Assay IC50.

Structures are written as SMILES. Like-named read-outs stand apart in the source and are kept apart here.

The source of these data is patent publication US9056859B2, “Inhibitors of the renal outer medullary potassium channel” (Merck Sharp & Dohme Corp., priority 2010, dated 2015).

Sequence of Kir1.1 (ROMK1) (P48048 whole entry): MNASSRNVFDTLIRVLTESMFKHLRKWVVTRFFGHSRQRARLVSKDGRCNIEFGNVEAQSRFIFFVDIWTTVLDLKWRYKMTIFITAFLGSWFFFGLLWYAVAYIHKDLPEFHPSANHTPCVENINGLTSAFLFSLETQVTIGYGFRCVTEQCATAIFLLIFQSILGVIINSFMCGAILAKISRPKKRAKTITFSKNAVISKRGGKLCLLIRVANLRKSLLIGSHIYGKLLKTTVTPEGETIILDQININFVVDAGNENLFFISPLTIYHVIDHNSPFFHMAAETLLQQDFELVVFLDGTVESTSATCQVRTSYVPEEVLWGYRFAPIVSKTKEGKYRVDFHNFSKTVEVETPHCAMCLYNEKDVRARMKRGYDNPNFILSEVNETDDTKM

As for `Cc1c(CCN2CCN(C(=O)C3CCc4nc(-n5cnnn5)ccc43)CC2)ccc2c1COC2=O` (single isomer, unassigned) [Example 96], the half-inhibitory concentration (IC50) under setting [1] worked out at 61 nM.

Regarding `C[C@H]1Cc2cc(CCN3CCN(C(=O)C4CCc5nc(-n6cnnn6)ccc54)CC3)ccc2C(=O)O1` (single isomer, unassigned) [Example 177], under setting [1], the 50% inhibitory concentration (IC50) came to 100 nM.

For the compound `O=C1OCc2cc(CCN3CCCN(C(=O)Cc4ccc(-n5cnnn5)cc4)CC3)ccc21` [Example 11], inhibition was half-maximal at 12 nM (IC50).

For the compound `N#Cc1ccc(CCN2CCN(C(=O)Cc3ccc(-n4cnnn4)cc3)CC2)cc1F` [Example 39], the IC50 under setting [1] came out at 63 nM.

In turn, `COc1cc(CC(=O)N2CCN(CCc3ccc4c(c3C)COC4=O)CC2)c(F)cc1C#N` [Example 48] had a 50% inhibitory concentration (IC50) of 35 nM.

Turning to `Cc1c(CCN2CCN(C(=O)Cc3cc(F)c(C#N)cc3F)CC2)ccc2c1COC2=O` [Example 59], the IC50 under setting [1] was found to be 94 nM.

With `Cc1c(CCN2CCN(C(=O)Cc3ccc(-n4cnnn4)cc3)CC2)ccc(F)c1C#N` [Example 122], under setting [1], the IC50 amounted to 37 nM.

In the case of `Cc1c([C@@H](O)CN2CCN(C(=O)Cc3ccc(-n4cnnn4)nc3)C3CC32)ccc2c1COC2=O` (stereo partly drawn) [Example 217, 5-[(1R)-1-hydroxy-2-(5-{[6-(1H-tetrazol-1-yl)pyridin-3-yl]acetyl}-2,5-diazabicyclo[4.1.0]hept-2-yl)ethyl]-4-methyl-2-benzofuran-1(3H)-one], the concentration for half-maximal inhibition (IC50) under setting [1] stood at 56 nM.
